Results as given in patent US9776983B2, “Method for manufacturing fluoropolymers” (SOLVAY SOLEXIS S.p.A., priority 2008, dated 2017).
“And” between values parts separate entries of the source, which are not always exact repeats. Equal values may be shown once.

Legend:
[1] = pKa of acid (D); assay type: physicochemical; settings: free acid (D)
Experimental: An aqueous solution composed of KMnO4 (238 mmol, 37.6 g), NaOH (238 mmol, 9.52 g) in 200 ml of distilled H2O was introduced in a 3-necked glass round-bottomed flask equipped with a magnetic stirrer, a dropping funnel, a thermometer and a tap water refrigerating column. The flask was heated to 80° C. with vigorous stirring and then 238 mmol; 50 g of product obtained from step 1a was slowly dropped into the basic oxidizing solution. Immediate exothermic release (+15° C.) was observed together with formation of MnO2 precipitate. After completion of the addition, solution was further stirred at 80° C. for 40 min. Crude reaction mixture was then cooled to room temperature, filtered, acidified to pH=1 with concentrated HCl (37% w/w) and extracted several times with CH2Cl2. The organic layer was dried over MgSO4, filtered and then the CH2Cl2 is evaporated.

[2] = Thermogravimetric analysis (TGA) in air; assay type: physicochemical; settings: ammonium salt
Experimental: (§1) An organic solution composed of (D) (127 mmol; 30.6 g) and 200 ml of CH2Cl2 was introduced in a 2-necked glass round-bottomed flask equipped with a magnetic stirrer, a tap water refrigerating column and a bubbling tube. The mixture was cooled to 0° C. with vigorous stirring and a large excess of gaseous NH3 was bubbled through the organic mixture. Bubbling of NH3 (g) was pursued until completion of the precipitation of the ammonium salt. Crude mixture was filtered; solid was dried in a vacuum oven at 40° C. under reduced pressure (20 mmHg) for 2 hours. A flaky white solid is obtained. Isolated yield of compound (E) (VIIa, with Xa being NH4)=100%. […] FIG. 2 depicts the ^19F-NMR spectrum of compound (E).
Perfluorinated ester (G) was hydrolyzed in water at 0° C., yielding corresponding acid with quantitative yield. Evolved HF was neutralized with 1.5 mol eq. of KF, yielding solid KHF2, which was separated by filtration. After removal of solvent, the free acid (b.p.=160° C.) and CF3COOH (b.p.=72° C.) were separated by fractional distillation. Gaseous NH3 was then bubbled in a CH2Cl2 (200 ml) solution of the acid; ammonium salt (H) (formula Va, with Xa═NH4) was then recovered with a yield of 75% moles (with respect to alcohol intermediate (B)). […] FIG. 3 depicts the ^19F-NMR spectrum recorded on compound (H).
Acid (XIII, Xa═H) was solubilised in CH2Cl2 (200 ml); gaseous NH3 was then bubbled in said solution; ammonium salt (XIII, Xa═NH4) was then recovered with a yield of 75% moles (with respect to alcohol intermediate (L)). […] FIG. 7 depicts the ^19F-NMR spectrum recorded on ammonium salt (XIII, Xa═NH4).

[3] = Plasma levels and pharmacokinetic parameters after single oral (gavage) administration; assay type: in vivo, male Wistar (SPF-bred) rats; settings: for elimination from blood compared with APFO: after single oral administration, C/Cmax versus time (FIG. 5); for time of maximal plasma concentration (tmax): single oral, Va, VIIa about 70 μmol/kg, XIII 73 umol/kg
Experimental: (§2) Compound Va and VIIa (Xa═NH4) were administered by single oral route (gavage) three male Wistar (SPF-bred) rats at dose levels of about 70 μmol/kg of dry ammonium salt, corresponding to the 21.2 mg/kg for compound Va and 19.9 mg/kg for compound VIIa. Blood sampling occurred 15 minutes before administration, at 4, 8, 12, 24, 72 and 168 hours after administration.
(§3) Compound XIII was dosed by single oral administration to 3 male Wistar rats at the dose of 73 umol/kg corresponding to 26.06 mg/kg. Blood sampling occurred at 15 minutes before administration, at 4, 8, 12, 24, 72 and 168 hours after administration. Urine samples were obtained at time intervals 0-12, 12-24, 24-72, 72-96, 96-168 hours after dosing. Plasma and urine concentration of XIII were determined by a validated analytical method.
Results of plasma concentrations for compound VIIa (Xa═NH4), Va (Xa═NH4), XIII (Xa═NH4) and APFO as a function of time are sketched in FIG. 5. This graph depicts ratio C/Cmax for compound Va (Xa═NH4) (●) compound VIIa (Xa═NH4) (◯), for compound XIII (Xa═NH4) (□) and APFO (▴), with C=instantaneous plasma concentration and Cmax=maximum plasma concentration, as a function of time (in hours).

[4] = Oral acute toxicity; assay type: in vivo
Experimental: as §1

[5] = Urine levels and urinary recovery after single oral administration; assay type: in vivo, male Wistar rats
Experimental: as §2, §3

[6] = plasma, male rats, single oral gavage, about 70 μmol/kg, individual values of the three animals, listed as VIIa (Xa = NH4)

| SMILES | pKa [1] | TGA temperature at weight decrease of 10% [2] [°C] | TGA temperature at weight decrease of 50% [2] [°C] | elimination from blood compared with APFO [3] | tmax ([3]; plasma, male rats, single oral gavage, about 70 μmol/kg, individual values of the three animals) | AUC0-t [3, 6] | AUCinf. [3, 6] | Cmax [3, 6] | t1/2, z [3, 6] | reliable plasma half life ([3]; single oral gavage, about 70 μmol/kg, male Wistar rats) [h] | time of maximal plasma concentration (tmax) ([3]; male Wistar rats) [h] | LD50 [4] | urinary recovery at 168 hours after treatment ([5]; rats, single oral administration) | urinary half lives ([5]; rats, single oral administration, individual values) | mean urinary recovery in 168 hours after treatment ([5]; 3 male Wistar rats, single oral, 73 umol/kg (26.06 mg/kg)) |
| --- | --- | --- | --- | --- | --- | --- | --- | --- | --- | --- | --- | --- | --- | --- | --- |
| O=C(O)C1(F)OC(F)(F)OC1OC(F)(F)F (stereo not shown) [(D)] | 2.8 | – | – | – | – | – | – | – | – | – | – | – | – | – | – |
| N.O=C(O)C1(F)OC(F)(F)OC1OC(F)(F)F (stereo not shown) [Compound VIIa] | – | 148 | 182 | significantly faster elimination | 4, 4, 4 h | 135.608 µg·h/mL and 47.07 µg·h/mL and 114.562 µg·h/mL | 47.137 µg·h/mL and 115.916 µg·h/mL and 137.788 µg·h/mL | 11258 ng/mL and 14767 ng/mL and 18878 ng/mL | 4.8 h and 8.0 h and 8.9 h | 8.0 to 8.9 | 4 | exceed 2000 mg/kg | 97-107% | 9 h and 13 h and 10 h | – |
| N.O=C(O)C(F)(F)OC1(F)OC(F)(F)OC1(F)OC(F)(F)F (stereo not shown) [Compound XIII] | – | 159 | 191 | significantly faster elimination | – | – | – | – | – | – | 4 | – | – | – | around 82% |
